Laboratory results: PMC7699860 (Molecules, 2020)

Tested on: Tel-23 (DNA telomeric G4) (DNA, G4) TAGGGTTAGGGTTAGGGTTAGGG
Assay: UV melting at 290 nm
Conditions: K+ (KCl 50 mM), NaCac 2.5 mM, pH 6.5, G4 0.472 µM

Structure (SMILES) | ΔTm (CG4/CAu = 0.5, derived from two Tm (60 and 57)) [°C] | ΔTm (CG4/CAg = 1.4, derived from two Tm (60 and 60)) [°C]
CCN1[C]N(Cc2c3ccccc3cc3ccccc23)C=C1.CCN1[C]N(Cc2c3ccccc3cc3ccccc23)C=C1.[Au+] | -3 | –
CCN1[C]N(Cc2c3ccccc3cc3ccccc23)C=C1.CCN1[C]N(Cc2c3ccccc3cc3ccccc23)C=C1.[Ag+] | – | 0
